Test [1] addresses T1, FatA (AtFatA) (Arabidopsis thaliana, UniProt Q42561).
T1 construct: residues 1-74 (chloroplast transit peptide) removed; noncleavable C-terminal His6 tag; codon-optimised gene in pET-24a(+), E. coli BL21(DE3); dimer by native mass spectrometry
T1 sequence (Q42561 75-362): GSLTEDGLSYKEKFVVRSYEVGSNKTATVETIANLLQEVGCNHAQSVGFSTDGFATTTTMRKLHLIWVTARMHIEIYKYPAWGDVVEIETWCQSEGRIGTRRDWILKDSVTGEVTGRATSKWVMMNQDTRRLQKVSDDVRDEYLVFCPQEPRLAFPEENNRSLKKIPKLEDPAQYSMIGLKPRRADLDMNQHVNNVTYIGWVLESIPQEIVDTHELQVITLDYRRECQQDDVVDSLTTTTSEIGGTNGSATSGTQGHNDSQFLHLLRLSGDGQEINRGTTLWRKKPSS
The experiment in a line: fluorescent CPM detection of CoA released from oleoyl-CoA. Type of test: biochemical.

Test [2] has as its target T1, FatA (AtFatA). Kind of test: X-ray crystal structure, fragment soak. The conditions noted are these: crystal soak […], […] DMSO, pH […]; herbicide binding site.
For test [3], the target named is T1, FatA (AtFatA). The experiment in a line: SPR, steady-state […] fit, His-captured and amine-coupled FatA. It counts as binding.
The target in test [4] is T1, FatA (AtFatA). The experiment in a line: biochemical. Also noted: SPR (Biacore 8K, immobilized His-tagged FatA), steady-state affinity and 1:1 kinetic fits, 20 °C. The conditions noted are these: for kon: read-out: ka (1/Ms), kinetic fit; for koff: read-out: kd (1/s), kinetic fit; for ka / kd: kinetic fit; for ka: ka (1/Ms); for kd: kd (1/s). An excerpt:
The analogues were used to explore the binding capabilities of the herbicide pocket as well as tolerance to heterocyclic ring size. […] The resulting 60 compounds were either purchased from Enamine REAL or synthesized in‐house. […] Chemical structures of all x1816 analogues tested are available in Data S1. Binding data can be found in Data S2.

For test [5], the target named is T1, FatA (AtFatA). The experiment in a line: biochemical. Conditions: steady-state affinity fit. Also noted: SPR (Biacore 8K), His-captured FatA; steady-state affinity KD and kinetic fit (1:1 model). The protocol:
FatA was immobilized on an NTA sensor chip (GE Healthcare, Chicago, IL, USA) using a Biacore 8K, captured via His‐tag and simultaneous amine coupling on EDC/NHS‐activated carboxyl groups (Immobilization buffer: 25 mM HEPES pH 7.4, 150 mM NaCl, 1 mM TCEP, 0.05% Tween 20). Equilibrium binding experiments were performed at 20 °C using a Biacore 8K instrument (GE Healthcare) with 25 mM HEPES pH 7.4, 150 mM NaCl, 1 mM TCEP, 0.05% Tween 20 and 2% DMSO as running buffer for compound testing. Compounds were injected over the chip in two‐fold dilution series either in multi‐cycle mode (60s/180s association/dissociation time) or single‐cycle kinetic mode (160 s/1800s association/dissociation time). Indicative K D values were obtained by steady‐state affinity fitting to a 1:1 binding site model.

“And” between values parts separate entries of the source, which are not always exact repeats. Equal entries are not always repeated. Where two headings read alike, the source gives them in different places.

`NS(=O)(=O)c1nc2ccccc2[nH]1` [x1168/x1231]: the IC50 in test [1] ([…] oleoyl-CoA, […] FatA, pH […], room temperature, active site (also dimer site), unreliable) is given as above 250 µM. Consider `Nc1cc(F)ccc1C(=O)O` [x1290], for which, in test [2], the “X-ray crystal structure, fragment soak” value was “x1290 and x1437 which share a similar chemical motif and are both bound”.

As to `O=C(O)c1sccc1-n1cccc1` [x1425], the IC50 in test [1] is above 250 µM. On to `Cc1cccc(C(=O)O)c1N` [x1437], for which, in test [2], the “X-ray crystal structure, fragment soak” value was “x1290 and x1437 which share a similar chemical motif and are both bound”. `Nc1ccc2oc(=O)ccc2c1` [x1463]: in test [1], the IC50 was 142 µM.

As for `CNC1CCN(c2ccccc2F)C1=O` (stereo not shown) [x1573], the IC50 in test [1] is 29 µM.

In the case of `CC(=O)N1CCSc2ccccc2C1` [x1816-FU1], the Kd in test [3] was around 0.09 µM. In addition, in test [4], the dissociation constant (Kd) was determined as 0.0741 µM, the kon was found to be 463000 M⁻¹ s⁻¹ and the koff turned out to be 0.0343 s⁻¹. For `CC(=O)N1CCSc2ccccc2C1` [x1816-FU1_repeat], in test [4], the “ka” value is 367000 M⁻¹ s⁻¹ and 305000 M⁻¹ s⁻¹; the “kd” value is 0.0326 s⁻¹ and 0.0293 s⁻¹.

`CCC(=O)N1CCCc2ccccc2C1` [x1816-FU2]: in test [4], the affinity, expressed as Kd, was 0.156 µM; the “ka” value was determined as 321361.600232 M⁻¹ s⁻¹; the koff turned out to be 0.0502 s⁻¹. Regarding `CCC(=O)N1CCCc2ccccc2C1` [x1816-FU2_repeat], in test [4], the “ka” value is 163000 M⁻¹ s⁻¹ and 124000 M⁻¹ s⁻¹; the “kd” value is 0.0811 s⁻¹ and 0.0645 s⁻¹. On to `CCCC(=O)N1c2ccccc2CCC1C` (stereo not shown) [x1816-FU4], for which, in test [4], binding was characterised by a dissociation constant (Kd) of 1.16 µM, the kon came to 10100 M⁻¹ s⁻¹ and the koff came to 0.0117 s⁻¹. For `CCCC(=O)N1c2ccccc2CCC1C` (stereo not shown) [x1816-FU4_repeat], in test [4], the “ka” value was 12300 M⁻¹ s⁻¹ and 10600 M⁻¹ s⁻¹; the “kd” value is 0.0147 s⁻¹ and 0.0135 s⁻¹.

Turning to `CC(=O)N1c2ccccc2OCC1C` (stereo not shown) [x1816-FU5], in test [4], the dissociation constant (Kd) was found to be 1.55 µM, the kon is 45000 M⁻¹ s⁻¹ and the koff is 0.0695 s⁻¹.

Take `CC(C)C(=O)N1c2ccccc2CCC1C` (stereo not shown) [x1816-FU6]: in test [4], the Kd stood at 1.63 µM, the kon turned out to be 13600 M⁻¹ s⁻¹ and the koff was 0.0222 s⁻¹. The corresponding values for `CCC(C)C(=O)N1c2ccccc2CCC1C` (stereo not shown) [x1816-FU7] are 1.96 µM, 4150 M⁻¹ s⁻¹ and 0.00811 s⁻¹. `CCC(=O)N1c2ccccc2CCC1C` (stereo not shown) [x1816-FU8]: in test [4], binding was put at a Kd of 2.47 µM, the kon stood at 13900 M⁻¹ s⁻¹ and the koff is 0.0343 s⁻¹. The matching figures for `CC(=O)N1CCCc2c(Cl)ccc(F)c21` [x1816-FU9]: 3.06 µM, 59600 M⁻¹ s⁻¹ and 0.182 s⁻¹.

In the case of `CC(=O)N1CCCc2cccc(F)c21` [x1816-FU10], in test [4], the Kd is 3.1 µM, the kon was found to be 50900 M⁻¹ s⁻¹ and the koff was 0.158 s⁻¹. For `CC(=O)N1CC(C)(CO)Cc2ccccc21` (stereo not shown) [x1816-FU11], in test [4], the Kd is 3.13 µM, the kon was found to be 8170 M⁻¹ s⁻¹ and the koff is 0.0256 s⁻¹. The matching figures for `COCC(=O)N1c2ccccc2CCC1C` (stereo not shown) [x1816-FU12]: 4.42 µM, 20000 M⁻¹ s⁻¹ and 0.0885 s⁻¹. The corresponding values for `CC(C)CC(=O)N1c2ccccc2CCC1C` (stereo not shown) [x1816-FU13] are 8.7 µM, 8080 M⁻¹ s⁻¹ and 0.0703 s⁻¹. As to `CC1CCc2ccccc2N1C(=O)CC(C)(C)C` (stereo not shown) [x1816-FU14], in test [4], the Kd was 19.9 µM, the kon amounted to 3010 M⁻¹ s⁻¹ and the koff was determined as 0.06 s⁻¹. In test [5], `COCC(=O)N1CC(C)(C)c2ccccc21` [x1816-FU42] yielded a dissociation constant Kd of 57.7 µM. In test [5], `CCC1CCc2ccccc2N1C(C)=O` (stereo not shown) [x1816-FU43] yielded a Kd of 68.1 µM. In turn, `CC1CCc2ccccc2N1C(=O)NC(C)(C)C` (stereo not shown) [x1816-FU44] yielded a dissociation constant Kd in test [5] of 91.5 µM. The Kd values of the last two molecules are within 1.5-fold of each other.

In turn, `CC(=O)N1CCC(C)c2ccccc21` (stereo not shown) [x1816-FU45] yielded a Kd in test [5] of 93.8 µM. Still for that read-out and setting: for `CC(=O)N1c2ccccc2C(C)CC1(C)C` (stereo not shown) [x1816-FU54] the value was above 100 µM. On the same count and under the same terms, next, `CC(=O)N1CCN(C)c2ncccc21` [x1816-FU56]: above 100 µM; `CC(=O)N1CC(C)(C)c2ccccc21` [x1816-FU57]: above 100 µM; `CC(=O)N1c2ccccc2C(C)(C)CC1C` (stereo not shown) [x1816-FU58]: above 100 µM.

Turning to `CC(=O)N1CCCc2cccnc21` [x1816-FU59], the Kd in test [5] was above 100 µM.

In test [5], `CC(=O)N1CCCc2ncccc21` [x1816-FU60] showed a Kd above 100 µM. As to `O=C(Nc1ccccc1)N1CCCCCC1` [x1944*], the 50% inhibitory concentration (IC50) in test [1] came to 43.9 µM. For `CNCC1COc2ccccc2O1` (stereo not shown) [x2004], the half-maximal inhibitory concentration (IC50) in test [1] amounted to 25.6 µM.

The record behind these values is publication PMC12713704, “Crystal structure of fatty acid thioesterase A bound by 129 fragments provides diverse development opportunities” (Pest Management Science, 2025).
